According to patent publication US20080262097A1, “Formulations” (priority 2005, published 2008):
Converted amounts (≈) assume the structure as drawn. Read-outs that look alike come from different tables or passages of the source.

Tests used:
[1] = system: S. epidermidis (NCTC 11047); test: Disc diffusion assay (DDA); type: cell-based; settings: zone diameter, 200 μg per disc
Description: (§1) The staphylococci and enterococci were cultured and maintained on Mueller-Hinton Medium (agar and broth) at pH 7.2; they were incubated aerobically at 37° C. for 24 hours.
(§2) A sterile paper disc was impregnated with a sample of the test compound and a minimum of 30 minutes allowed for the solvents to evaporate as far as possible. The disc was then placed on an agar plate onto which the test micro-organism had been inoculated. The plate was then incubated under the conditions described above, following which it was examined visually for signs of bacterial growth. If the test compound had antimicrobial activity, a circular zone of no growth would be obtained around the disc. The diameter of this zone of “inhibition” was measured using a ProtoCOL™ automated zone sizer (Synbiosis, Cambridge, UK). In general, a greater diameter and/or area of the zone of inhibition indicates a greater antimicrobial activity in the relevant test compound, although other factors such as test compound mobility through the agar gel may also influence the result.
(§3) The area of the zone of inhibition was calculated from the measured zone diameter (D) using the formula π(D/2)^2.

[2] = system: Staphylococcus simulans ATCC 27848; test: Disc diffusion assay (DDA); type: cell-based; settings: zone diameter, 200 μg per disc
Description: as §1, §2, §3

[3] = system: Staphylococcus aureus ATCC 12600; test: Disc diffusion assay (DDA); type: cell-based; settings: zone diameter, 200 μg per disc
Description: as §1, §2, §3

[4] = system: Staphylococcus auricularis ATCC 33753; test: Disc diffusion assay (DDA); type: cell-based; settings: zone diameter, 200 μg per disc
Description: as §1, §2, §3

[5] = system: Staphylococcus haemolyticus ATCC 29970; test: Disc diffusion assay (DDA); type: cell-based; settings: zone diameter, 200 μg per disc
Description: as §1, §2, §3

[6] = system: Staphylococcus hominis ATCC 27844; test: Disc diffusion assay (DDA); type: cell-based; settings: zone diameter, 200 μg per disc
Description: as §1, §2, §3

[7] = system: Staphylococcus capitis ATCC 27840; test: Disc diffusion assay (DDA); type: cell-based; settings: zone diameter, 200 μg per disc
Description: as §1, §2, §3

[8] = system: S. saprophyticus NCTC 7292; test: Disc diffusion assay (DDA); type: cell-based; settings: zone diameter, 200 μg per disc
Description: as §1, §2, §3

[9] = system: Staphylococcus warneri ATCC 27836; test: Disc diffusion assay (DDA); type: cell-based; settings: zone diameter, 200 μg per disc
Description: as §1, §2, §3

P. avidum ATCC 25577 = test: MBC assay; type: cell-based; settings: Cutibacterium avidum, ATCC25577
Description: (§4) The Propionibacterium spp organisms were cultured and maintained on Wilkins-Chalgren Anaerobe Medium (agar and broth) at pH 6.0; cultures were incubated anaerobically at 37° C. for 72 hours.
(§5) This assay, normally carried out after an MIC assay, determines the minimum concentration of a compound that is lethal to the micro-organism being tested.
(§6) These samples were then individually sub-cultured on non-selective agar medium, under the incubation conditions described above. Following incubation they were examined visually for bacterial growth.

P. granulosum PRP-043 = test: MBC assay; type: cell-based; settings: P. granulosum PRP-043 (resistance MLS)
Description: as §4, §5, §6

P. granulosum PRP-055 = test: MBC assay; type: cell-based; settings: P. granulosum PRP-055 (resistance None)
Description: as §4, §5, §6

P. granulosum PRP-044 = test: MBC assay; type: cell-based; settings: P. granulosum PRP-044 (resistance MLS)
Description: as §4, §5, §6

P. granulosum NCTC 11865 = test: MBC assay; type: cell-based; settings: P. granulosum NCTC 11865 (resistance None)
Description: as §4, §5, §6

P. granulosum PRP-005 = test: MBC assay; type: cell-based; settings: P. granulosum PRP-005 (resistance MLSK)
Description: as §4, §5, §6

P. acnes PRP-068 = test: Disc diffusion assay (DDA); type: cell-based, Propionibacterium acnes; settings: zone diameter, 200 μg per disc
Description: as §4, §2, §3

P. acnes PRP-023 = test: Disc diffusion assay (DDA); type: cell-based, Propionibacterium acnes; settings: zone diameter, 200 μg per disc
Description: as §4, §2, §3

P. acnes PRP-002 = test: Disc diffusion assay (DDA); type: cell-based, Propionibacterium acnes; settings: zone diameter, 200 μg per disc
Description: as §4, §2, §3

P. acnes PRP-102 = test: Disc diffusion assay (DDA); type: cell-based, Propionibacterium acnes; settings: zone diameter, 200 μg per disc
Description: as §4, §2, §3

P. acnes PRP-101 = test: Disc diffusion assay (DDA); type: cell-based, Propionibacterium acnes; settings: zone diameter, 200 μg per disc
Description: as §4, §2, §3

P. acnes PRP-003 = test: Disc diffusion assay (DDA); type: cell-based, Propionibacterium acnes; settings: zone diameter, 200 μg per disc
Description: as §4, §2, §3

P. acnes PRP-046 = test: Disc diffusion assay (DDA); type: cell-based, Propionibacterium acnes; settings: zone diameter, 200 μg per disc
Description: as §4, §2, §3

P. acnes PRP-059 = test: Disc diffusion assay (DDA); type: cell-based, Propionibacterium acnes; settings: zone diameter, 200 μg per disc
Description: as §4, §2, §3

P. acnes PRP-008 = test: Disc diffusion assay (DDA); type: cell-based, Propionibacterium acnes; settings: zone diameter, 200 μg per disc
Description: as §4, §2, §3

P. acnes PRP-026 = test: Disc diffusion assay (DDA); type: cell-based, Propionibacterium acnes; settings: zone diameter, 200 μg per disc
Description: as §4, §2, §3

P. acnes PRP-007 = test: Disc diffusion assay (DDA); type: cell-based, Propionibacterium acnes; settings: zone diameter, 200 μg per disc
Description: as §4, §2, §3

P. acnes PRP-017 = test: Disc diffusion assay (DDA); type: cell-based, Propionibacterium acnes; settings: zone diameter, 200 μg per disc
Description: as §4, §2, §3

P. acnes PRP-004 = test: Disc diffusion assay (DDA); type: cell-based, Propionibacterium acnes; settings: zone diameter, 200 μg per disc
Description: as §4, §2, §3

P. acnes PRP-053 = test: Disc diffusion assay (DDA); type: cell-based, Propionibacterium acnes; settings: zone diameter, 200 μg per disc
Description: (§7) Other propionibacterial strains were also tested, as described in Example 8 below. These included certain antibiotic resistant propionibacteria, such as the two P. acnes strains PRP-010 and PRP-053 which are resistant respectively to macrolides-lincosamides-streptogramins-ketolides (MLSK) and to macrolides-lincosamides-streptogramins (MLS) and tetracycline—in other words, PRP-010 is resistant to erythromycin and clindamycin, and […] to erythromycin, clindamycin and tetracycline.
as §4, §2, §3

P. acnes PRP-010 = test: Disc diffusion assay (DDA); type: cell-based, Propionibacterium acnes; settings: zone diameter, 200 μg per disc
Description: as §7, §4, §2, §3

CC(C)(C)c1cc(O)ccc1O [TBHQ, t-butyl hydroquinone]
DDA [1]: 57.34 mm
DDA [2]: 53.07 mm
DDA [3]: 49.24 mm
DDA [4]: 80.18 mm
DDA [5]: 51.08 mm
DDA [6]: 64.59 mm
DDA [7]: 73.90 mm
DDA [8]: 41.67 mm
DDA [9]: 54.43 mm
MBC (P. avidum ATCC 25577; P. avidum ATCC 25577 (resistance None), read-out: MBC): 3.9 mg/L (≈ 23.5 µM)
MBC (P. granulosum PRP-043): 15.6 mg/L (≈ 93.9 µM)
MBC (P. granulosum PRP-055): 7.8 mg/L (≈ 46.9 µM)
MBC (P. granulosum PRP-044): 31.2 mg/L (≈ 188 µM)
MBC (P. granulosum NCTC 11865): 7.8 mg/L (≈ 46.9 µM)
MBC (P. granulosum PRP-005): 62.5 mg/L (≈ 376 µM)
DDA (P. acnes PRP-068): 20.89 (±1.08) mm
DDA (P. acnes PRP-023): 23.90 (±0.00) mm
DDA (P. acnes PRP-002): 28.42 (±0.95) mm
DDA (P. acnes PRP-102): 23.80 (±0.10) mm
DDA (P. acnes PRP-101): 0.0 (±0.00) mm
DDA (P. acnes PRP-003): 38.01 (±1.02) mm
DDA (P. acnes PRP-046): 17.46 (±1.58) mm
DDA (P. acnes PRP-059): 17.56 (±0.72) mm
DDA (P. acnes PRP-008): 14.47 (±0.90) mm
DDA (P. acnes PRP-026): 8.18 (±0.72) mm
DDA (P. acnes PRP-007): 13.43 (±2.49) mm
DDA (P. acnes PRP-017): 18.40 (±1.08) mm
DDA (P. acnes PRP-004): 30.32 (±1.97) mm
DDA (P. acnes PRP-053): 23.49 (±1.44) mm
DDA (P. acnes PRP-010): 18.71 (±0.18) mm

O=C(OOC(=O)c1ccccc1)c1ccccc1 [benzoyl peroxide]
DDA [1]: 10.65 mm
DDA [2]: 9.94 mm
DDA [3]: 11.99 mm
DDA [4]: 21.56 mm
DDA [5]: 11.10 mm
DDA [6]: 11.83 mm
DDA [7]: 12.46 mm
DDA [8]: 11.38 mm
DDA [9]: 12.04 mm
MBC (P. avidum ATCC 25577): 62.5 mg/L (≈ 258 µM)
MBC (P. granulosum PRP-043): 62.5 mg/L (≈ 258 µM)
MBC (P. granulosum PRP-055): 15.6 mg/L (≈ 64.4 µM)
MBC (P. granulosum PRP-044): 31.2 mg/L (≈ 129 µM)
MBC (P. granulosum NCTC 11865): 15.6 mg/L (≈ 64.4 µM)
MBC (P. granulosum PRP-005): 15.6 mg/L (≈ 64.4 µM)
DDA (P. acnes PRP-068): 28.79 (±0.95) mm
DDA (P. acnes PRP-023): 24.11 (±0.65) mm
DDA (P. acnes PRP-002): 25.69 (±0.66) mm
DDA (P. acnes PRP-102): 29.62 (±1.12) mm
DDA (P. acnes PRP-101): 25.73 (±1.99) mm
DDA (P. acnes PRP-003): 25.69 (±0.66) mm
DDA (P. acnes PRP-046): 24.36 (±0.36) mm
DDA (P. acnes PRP-059): 23.49 (±0.48) mm
DDA (P. acnes PRP-008): 27.80 (±1.29) mm
DDA (P. acnes PRP-026): 26.52 (±0.65) mm
DDA (P. acnes PRP-007): 23.88 (±1.42) mm
DDA (P. acnes PRP-017): 23.28 (±0.48) mm
DDA (P. acnes PRP-004): 31.17 (±1.02) mm
DDA (P. acnes PRP-053): 29.72 (±0.48) mm
DDA (P. acnes PRP-010): 30.39 (±0.82) mm
